Test results published in US5556744A, “Methods and compositions for diagnosing and treating certain HIV infected patients” (The Trustees of the University of Pennsylvania, priority 1994, dated 1996).

Legend:
[1] = test system: gp41 peptides; experiment: Number of gp41 peptides bound by maternal sera (Examples 3, 4); format: binding, HIV-1 IIIB; settings: Table 8
Experimental: (§1) Radioimmunoassay (RIA) and enzyme-linked immunosorbent assay (ELISA) were performed by standard methodologies [E. Engvall, Meth. Immunol., 70:419-439 (1980); S. K. Pierce et al, J. Exp. Med., 144:1254-1262 (1976)]. Peptides were dissolved in 0.05M carbonate-bicarbonate buffer (pH 9.6) at a concentration of 10 μg/ml. Fifty μl (500 ng) of the peptides were immobilized in 96 well polyvinylchloride plates (Dynatech Laboratories, Inc.) overnight at 4° C. Plates were washed and non-specific sites were blocked with PBS containing 1% BSA overnight at 4° C.
(§2) Dilutions of HIV positive maternal sera were made in blocking buffer at dilutions of 1:50 and 1:500 and incubated in peptide coated plates overnight at 4° C. Plates were washed with PBS and incubated with 75,000 cpm of ^125 I-labelled goat anti-human IgG. The antibody was iodinated by a chloramine T method [W. V. Williams et al, Proc. Natl. Acad. Sci. USA, 85:6488-6492 (1988)]. Plates were washed, dried and counted in a gamma counter to measure specific binding. Normal human serum (i.e., HIV seronegative) was used as a control.
(§3) Alternatively, ELISA assays were performed in polystyrene plates (Dynatech Laboratories, Inc) in which 0.05% Tween 20 (Sigma Chemical Co.) was included in the washing, blocking and dilution buffers. The secondary antibody used was goat […] Ig conjugated to horseradish peroxidase (HRP) (Sigma Chemical Co). The substrate used for color development was 3,3',5,5' tetramethyl-benzidine dihydrochloride (TMB) (Sigma Chemical Co). Absorbance of samples was measured in a Dynatech MR5000 (Dynatech Laboratories, Inc.) plate reader and expressed as an optical density at wavelength of 450 nm (OD450).
(§4) The results of the binding assays are represented in Tables 3, 4, 6 and 7. The following key is used for the designation of specific binding of the maternal sera samples to the peptides: The minus sign, -, is equivalent to the specific OD450 or cpm of sera sample binding to peptide divided by the specific OD450 or cpm of NHS sample binding to peptide, which value is less than 2. The plus sign, +, is equivalent to the specific OD450 or cpm of sera sample binding to peptide divided by the specific OD450 or cpm of NHS sample binding to peptide, which value is between 2 to 3. The double plus sign, ++, is equivalent to the specific OD450 or cpm of sera sample binding to peptide divided by the specific OD450 or cpm of NHS sample binding to peptide, which value is greater than 3.
(§5) Comparisons of number of peptides which bound maternal serum samples were made between the transmission group and the nontransmission group. The data was analyzed using the unpaired student's test. For the determination of differences in the binding of specific peptides between transmission and non-transmission groups, the Spearman's rank-order correlation test was performed.

[2] = test system: HIV-1 infected cells (MN isolate); experiment: Anti-syncytial assay (inhibition of HIV-1 MN syncytium formation, SupT1 target cells); format: cell-based; settings: HIV-1 MN, SupT1 cells, 3 days; vs normal human serum
Description: (§6) The H9 cell line (a cutaneous T lymphoma line) infected by HIV-IIIB [ATCC CRL 8543] was used in the neutralization assay. The H9 cell line infected by HIV-MN was used in the anti-syncytial assays. SupT1 and Hut78 cells were used as the target cell lines for the anti-syncytial and neutralization assays. All cell lines were obtained from the National Institutes of Health AIDS Repository (Bethesda, Md.).
To analyze the effect of the maternal serum samples on HIV-1 fusion, SupT1 cells were used as target cells in an anti-syncytial assay. Dilutions of the different maternal serum samples were made in 96 well plates in RPMI 1640 media containing 10% fetal calf serum at final dilutions of 1:4, 1:8, 1:16, 1:32, 1:64, 1:128, 1:256 or 1:512. HIV-1 infected cells (MN isolate) were then plated in the wells at a density of approximately 10^4 cells per well. SupT1 target cells were then added at 5×10^5 /well and the number of syncytia are determined after 3 days of incubation. Inhibition of syncytium formation by a serum sample was considered significant if the dilution which yielded a 50% reduction in the number of syncytia when compared to control was greater than 1:32. The average number of syncytia in the control (normal human serum) wells at the above dilutions were: 45.5, 48.5, 44, 48, 48.5, 41.5, 42 and 45.5 respectively.

[3] = test system: HIV-IIIB viral isolate; experiment: Neutralization assay (HIV-IIIB, Hut-78 cells, p24 antigen ELISA); format: cell-based, HIV-1 IIIB; set-up: key to Neutralization Activity, Dilution Resulting in ≥50% Inhibition: --: (-) indicates negative (i.e. a dilution of <1:10); settings: HIV-IIIB, Hut-78 cells, p24 OD450 after 6 days; vs normal human serum
Experimental: as §6
In a neutralization assay, 20 μl of maternal sera samples was placed in 96 round bottom well plates at final dilutions of 1:10, 1:90 and 1:810 in RPMI. The HIV-IIIB viral isolate was diluted in RPMI to a TCID50 of 100 units/ml. Twenty μl of the virus solution was placed in each well and the plate was incubated for one hour at 4° C. Hut-78 cells were incubated with 2 μg/ml of polybrene for one hour at 37° C. in a CO2 incubator. The HUT-78 cells were washed and resuspended in fresh RPMI to a final concentration of 4×10^6 cells/ml. Ten μl of the cell suspension was added to each well and the plate was incubated for one hour in a 37° C., CO2 incubator.
Fifteen μl of the serum/cell/virus solution was aliquoted to a new plate containing 200 μl of fresh RPMI and incubated for 6 days. After 6 days, 100 μl was used to analyze for p24 antigen. The p24 capture ELISA assay kit (Coulter Corporation, Hialeah, Fla.) was used to perform the measurements.
Further, sera samples at the same dilutions as described above were tested for residual p24 core protein or antibody to insure the results were due only to viral infection.

[4] = test system: gp120 peptides; experiment: Number of gp120 peptides bound by maternal sera (Examples 3, 4); format: binding, HIV-1 IIIB; settings: Table 8
Experimental: as §1, §2, §3, §4, §5

[5] = test system: HIV-1; settings: antisera (animals); cited from earlier work
[6] = test system: maternal HIV+ sera (antibodies); experiment: RIA / ELISA binding of maternal HIV+ sera to gp120 and gp41 peptides (Example 3); set-up: species or system human
Procedure, shortened: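 Peptides were coated at 10 μg/ml in carbonate buffer pH 9.6 and blocked with 1% BSA. Sera at 1:50 and 1:500 were incubated overnight at 4°C and detected with ¹²⁵I anti-human IgG (RIA) or HRP/TMB at OD450 (ELISA). Specific binding was taken as peptide minus no-peptide wells, scored as a ratio to normal human serum.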

[7] = test system: maternal serum samples (antibodies); experiment: ELISA peptide-binding of maternal sera, expanded peptide collection (Example 5); set-up: species or system human; settings: Example 5
Procedure, shortened: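 Maternal sera diluted 1:50 or 1:500 in 1% BSA/PBS/0.05% Tween 20 were tested by ELISA on 10 μg/mL HIV IIIB gp120/gp41 peptides (~18 residues, ≥85% pure). Binding scored positive at experimental/control OD450nm ratio ≥2; HIV-seronegative human sera served as controls.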

[8] = test system: maternal sera (antibodies); experiment: ELISA peptide-binding of maternal sera (Example 6); set-up: species or system human
Procedure, shortened: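 Third-trimester maternal sera, from HIV-1 transmitting and non-transmitting mothers, were tested by ELISA against ~16-residue peptides spanning HIV-1 external and transmembrane glycoproteins. Each serum was run with at least 40 peptides, and values are the percentage of sera binding each peptide.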

In the case of “HP5: gp120 peptide, amino acids 105-117, SEQ ID NO:102”, the “Number of gp41 Peptides Bound (+ or ++)” value [1] is reported as 0, the “Anti-Syncytial Activity, Dilution Resulting in ≥50% Inhibition” value [2] is reported as 1:128 and the “Neutralization Activity, Dilution Resulting in ≥50% Inhibition” value [3] is reported as “--”. For the same substance, the “Number of gp120 Peptides Bound (+/++)” value [4] was 4.

In the case of CTKAKRRVVQREKA [Peptide 497], the “Neutralizing activity of antisera generated to the peptide” value [5] is given as “do not demonstrate neutralizing activity”, the “Number of maternal sera binding to peptide” value ([6]; 20 maternal sera) is given as “Sixteen” and the “Percentage of sera samples demonstrating binding to peptide, non-transmitter” value ([6]; Non-transmitter group, n = 13) is given as 71%. The “Binding of maternal HIV+ serum to peptide (sera/NHS ratio)” value (“Binding … (sera/NHS ratio)” below) ([6]; Serum No. 1, Non-Transmission Group) was “- (specific OD450 or cpm of sera sample binding to peptide divided by the specific OD450 or cpm of NHS sample binding to peptide, which value is less than 2)”, the “Binding … (sera/NHS ratio)” value ([6]; Serum No. 2, Non-Transmission Group) was “++ (which value is greater than 3)” and the “Binding … (sera/NHS ratio)” value ([6]; Serum No. 3, Non-Transmission Group) was “++ (which value is greater than 3)”. The “Binding … (sera/NHS ratio)” value ([6]; Serum No. 4, Transmission Group) was “++ (which value is greater than 3)”, the “Binding … (sera/NHS ratio)” value ([6]; Serum No. 5, Transmission Group) was “+ (which value is between 2 to 3)” and the “Binding … (sera/NHS ratio)” value ([6]; Serum No. 6, Non-Transmission Group) was “+ (which value is between 2 to 3)”. The “Binding … (sera/NHS ratio)” value ([6]; Serum No. 7, Non-Transmission Group) was “- (specific OD450 or cpm of sera sample binding to peptide divided by the specific OD450 or cpm of NHS sample binding to peptide, which value is less than 2)”, the “Binding … (sera/NHS ratio)” value ([6]; Serum No. 8, Non-Transmission Group) was “++ (which value is greater than 3)” and the “Binding … (sera/NHS ratio)” value ([6]; Serum No. 9, Non-Transmission Group) was “++ (which value is greater than 3)”. The “Binding … (sera/NHS ratio)” value ([6]; Serum No. 10, Transmission Group) was “+ (which value is between 2 to 3)”, the “Binding … (sera/NHS ratio)” value ([6]; Serum No. 11, Non-Transmission Group) was “++ (which value is greater than 3)” and the “Binding … (sera/NHS ratio)” value ([6]; Serum No. 12, Non-Transmission Group) was “- (specific OD450 or cpm of sera sample binding to peptide divided by the specific OD450 or cpm of NHS sample binding to peptide, which value is less than 2)”. The “Binding … (sera/NHS ratio)” value ([6]; Serum No. 13, Transmission Group) was “- (specific OD450 or cpm of sera sample binding to peptide divided by the specific OD450 or cpm of NHS sample binding to peptide, which value is less than 2)”, the “Binding … (sera/NHS ratio)” value ([6]; Serum No. 14, Transmission Group) was “- (specific OD450 or cpm of sera sample binding to peptide divided by the specific OD450 or cpm of NHS sample binding to peptide, which value is less than 2)” and the “Binding … (sera/NHS ratio)” value ([6]; Serum No. 15, Transmission Group) was “++ (which value is greater than 3)”. The “Binding … (sera/NHS ratio)” value ([6]; Serum No. 16, Non-Transmission Group) was “++ (which value is greater than 3)”, the “Binding … (sera/NHS ratio)” value ([6]; Serum No. 17, Non-Transmission Group) was “++ (which value is greater than 3)” and the “Binding … (sera/NHS ratio)” value ([6]; Serum No. 18, Non-Transmission Group) was “+ (which value is between 2 to 3)”. The “Binding … (sera/NHS ratio)” value ([6]; Serum No. 19, Transmission Group) was “+ (which value is between 2 to 3)”, the “Binding … (sera/NHS ratio)” value ([6]; Serum No. 20, Non-Transmission Group) was “+ (which value is between 2 to 3)” and the “Percentage of sera samples demonstrating binding to peptide, transmitter” value ([6]; Transmitter / transmission group, n = 7) was “Seventy-seven”. The “Percent of the maternal serum samples that bound to the peptide” value ([6]; all 20 samples) was 80%, the “Binding / reactivity of maternal sera to peptide (in words)” value [7] was “High reactivity but no difference between the two groups” and the “Number of Non-Transmitters which bound to peptide” value ([8]; Non-Transmitters, N = 12) was 0. The “Percent of Non-Transmitters which bound to peptide” value ([8]; Non-Transmitters, N = 12) was 0%, the “Number of Transmitters which bound to peptide” value ([8]; Transmitters, N = 4) was 0 and the “Percent of Transmitters which bound to peptide” value ([8]; Transmitters, N = 4) was 0%.

In the case of “17: gp120 peptide, amino acids 267-282, SEQ ID NO:111 (EEEVVIRSVNFTDNAK) [Peptide 17]”, the “Number of gp41 Peptides Bound (+ or ++)” value [1] is reported as 4, the “Anti-Syncytial Activity, Dilution Resulting in ≥50% Inhibition” value [2] is reported as 1:256 and the “Neutralization Activity, Dilution Resulting in ≥50% Inhibition” value [3] is reported as 1:810. For the same substance, the “Number of gp120 Peptides Bound (+/++)” value [4] was 5.

With “HP3: gp120 peptide, amino acids 102-116, SEQ ID NO:101 (EQMHEDIISLWDQSL)” the “Number of gp41 Peptides Bound (+ or ++)” value [1] was 2, the “Anti-Syncytial Activity, Dilution Resulting in ≥50% Inhibition” value [2] was 1:256 and the “Neutralization Activity, Dilution Resulting in ≥50% Inhibition” value [3] was 1:90. For the same substance, the “Number of gp120 Peptides Bound (+/++)” value [4] was 4.
